Laboratory results from US4257941A, “Polycyclic nitrogen-containing compounds” (BASF Aktiengesellschaft, priority 1976, dated 1981).
Like-named read-outs stand apart in the source and are kept apart here.

How the values were obtained:
Type in all cases: in vivo
[1] = tested on: Triticum aestivum; experiment: Growth height of young cereal plants (Example 11, Table A)
Source text: (§1) The vessels used for the experiments were plastic pots having a volume of 1,130 cm^3 (Table A) or paraffined paper cups having a volume of 170 cm^3 (Table B). The pots and cups were filled with a sandy loam. The seeds of the test plants-separated by species-were sown shallow. Preemergence treatment (soil treatment) was effected immediately after sowing and before germination of the seeds. Seeds lying on the surface came into contact with the active ingredients. Postemergence treatment (leaf treatment) took place at an average growth height of the plants (depending on the rate of growth) of from 6 to 10 cm. The substances were suspended, emulsified or dissolved in water as diluent and applied by means of fine nozzles. The vessels were kept in the greenhouse in a temperature range of 12° C. to 25° C., and were regularly sprinkler irrigated for the duration of the experiment. The observation period was 6 to 8 weeks.

[2] = tested on: Hordeum vulgare; experiment: as above; details: soil treatment
Source text: as §1

[3] = tested on: Galium aparine; experiment: Herbicidal action (Example 25); details: read-out: percentage damage
Method: (§2) Paraffined paper cups having a volume of 170 cm^3 were filled with a sandy loam, and the seeds of the test plants sown therein, separated by species. (The species are also listed below.)
(§3) In the first group, treatment was effected immediately after sowing and before germination of the seeds (preemergence treatment=soil treatment). Shallow sown seeds not completely covered with soil came into contact with the active ingredients. In the second group, the plants were treated postemergence (=leaf treatment) at a growth height of from 2 to 8 cm, depending on the rate of growth and shape of the species concerned. The compounds were suspended or emulsified in water and applied with the aid of fine nozzles. The soil and plants were thoroughly sprinkler irrigated for the duration of the experiment. The cups were placed in the greenhouse and kept in the temperature range 12°-25° C. or 18°-35° C., depending on the temperature requirements of the various species. After 2 to 6 weeks the action was assessed visually on a 0 to 100 scale, 0 denoting no damage and 100 denoting plants not germinated or completely destroyed.

[4] = tested on: Solanum nigrum; experiment: Herbicidal action (Example 25)
Method: as §2, §3

[5] = tested on: Lamium spp.; experiment: Herbicidal action (Example 25)
Method: as §2, §3

[6] = tested on: Poa annua; experiment: Herbicidal action (Example 25); details: for pest or weed control at 2000 g/ha / pest or weed control at 4000 g/ha / pest or weed control at 8000 g/ha: Poa annua, read-out: percentage damage; for pest or weed control at 4000 g/ha: 4.0 kg/ha; for pest or weed control at 8000 g/ha: 8.0 kg/ha
Method: as §2, §3

[7] = post-emergence, postemergence, 2.0 kg/ha
[8] = post-emergence, postemergence, 4.0 kg/ha
[9] = post-emergence, postemergence, 8.0 kg/ha
[10] = pre-emergence, preemergence, 2.0 kg/ha
[11] = pre-emergence, preemergence, 4.0 kg/ha
[12] = pre-emergence, preemergence, 8.0 kg/ha

Row | SMILES | Growth height ([1]; leaf treatment, 0.5 kg/ha) [cm] | Growth height ([1]; leaf treatment, 1.0 kg/ha) [cm] | Growth height ([1]; leaf treatment, 2.0 kg/ha) [cm] | Growth height ([1]; soil treatment, 0.5 kg/ha) [cm] | Growth height ([1]; soil treatment, 1.0 kg/ha) [cm] | Growth height ([1]; soil treatment, 2.0 kg/ha) [cm] | Growth height ([2]; 0.5 kg/ha) [cm] | Growth height ([2]; 1.0 kg/ha) [cm] | Growth height ([2]; 2.0 kg/ha) [cm] | percentage damage ([4]; postemergence, 2.0 kg/ha) [percentage damage] | percentage damage ([4]; postemergence, 4.0 kg/ha) [percentage damage] | percentage damage ([4]; postemergence, 8.0 kg/ha) [percentage damage] | percentage damage ([4]; preemergence, 2.0 kg/ha) [percentage damage] | percentage damage ([4]; preemergence, 4.0 kg/ha) [percentage damage] | percentage damage ([4]; preemergence, 8.0 kg/ha) [percentage damage] | percentage damage ([5]; postemergence, 2.0 kg/ha) [percentage damage] | percentage damage ([5]; postemergence, 4.0 kg/ha) [percentage damage] | percentage damage ([5]; postemergence, 8.0 kg/ha) [percentage damage] | percentage damage ([5]; preemergence, 2.0 kg/ha) [percentage damage] | percentage damage ([5]; preemergence, 4.0 kg/ha) [percentage damage] | other results
1 | FC(F)(F)c1ccc(Cl)c(N2N=NC3C4CC(C5N=NC45)C32)c1 (centres unmarked) [drawing 361] | 42 | 27 | 20 | 16 | 15 | 0 | 40 | 39 | 38 |  |  |  |  |  |  |  |  |  |  |  | 
2 | Clc1cccc(N2N=NC3C4CC(C5N=NC45)C32)c1 (centres unmarked) [drawing 364] | 25 | 13 | 12 | 15 |  |  | 43 | 40 | 30 |  |  |  |  |  |  |  |  |  |  |  | Growth height ([1]; leaf treatment, 0.25 kg/ha): 29 cm; Growth height ([1]; soil treatment, 0.25 kg/ha): 26 cm
3 | Brc1ccccc1N1N=NC2C3CC(C4N=NC34)C21 (centres unmarked) [drawing 365] | 35 | 33 | 33 | 22 | 12 | 10 | 40 | 42 | 31 |  |  |  |  |  |  |  |  |  |  |  | 
4 | Brc1cccc(N2N=NC3C4CC(C5N=NC45)C32)c1 (centres unmarked) [drawing 366] | 33 | 28 | 17 | 24 | 20 | 16 | 38 | 30 | 27 |  |  |  |  |  |  |  |  |  |  |  | 
5 | c1cc2sncc2cc1N1N=NC2C3CC(C4N=NC34)C21 (centres unmarked) [drawing 368] | 23 | 26 | 20 | 28 | 20 | 23 | 36 | 39 | 31 |  |  |  |  |  |  |  |  |  |  |  | Growth height ([1]; leaf treatment, 0.25 kg/ha): 30 cm; Growth height ([1]; soil treatment, 0.25 kg/ha): 32 cm
6 | Clc1ccc(N2N=NC3C4CC(C5NNC45)C32)cc1 (centres unmarked) [drawing 369] | 30 | 28 | 25 | 12 | 6 | 7 | 30 | 18 | 14 |  |  |  |  |  |  |  |  |  |  |  | Growth height ([1]; leaf treatment, 0.25 kg/ha): 36 cm; Growth height ([1]; soil treatment, 0.25 kg/ha): 22 cm; Growth height ([2]; 0.25 kg/ha): 36 cm
7 | CC(C)OC(=O)Nc1cccc(Cl)c1 [drawing 426] |  |  |  |  |  |  |  |  |  | 22 | 22 | 38 | 85 | 85 | 90 | 50 | 50 | 90 | 72 | 90 | pest or weed control at 2000 g/ha [3, 7]: 0%; pest or weed control at 4000 g/ha [3, 8]: 0%; pest or weed control at 8000 g/ha [3, 9]: 10%; pest or weed control at 2000 g/ha [3, 10]: 88%; pest or weed control at 4000 g/ha [3, 11]: 80%; pest or weed control at 8000 g/ha [3, 12]: 88%; percentage damage ([5]; preemergence, 8.0 kg/ha): 95 percentage damage; pest or weed control at 2000 g/ha [6, 7]: 30%; pest or weed control at 4000 g/ha ([6]; post-emergence, postemergence): 30%; pest or weed control at 8000 g/ha ([6]; post-emergence, postemergence): 42%; pest or weed control at 2000 g/ha [6, 10]: 100%; pest or weed control at 4000 g/ha ([6]; pre-emergence, preemergence): 100%; pest or weed control at 8000 g/ha ([6]; pre-emergence, preemergence): 100%
8 | CN(C)C(=O)Nc1ccc(Oc2ccccc2)cc1 [drawing 427] |  |  |  |  |  |  |  |  |  | 100 | 100 | 100 | 75 | 80 | 90 | 75 | 85 | 85 | 50 | 65 | pest or weed control at 2000 g/ha [3, 7]: 0%; pest or weed control at 4000 g/ha [3, 8]: 0%; pest or weed control at 8000 g/ha [3, 9]: 0%; pest or weed control at 2000 g/ha [3, 10]: 60%; pest or weed control at 4000 g/ha [3, 11]: 80%; pest or weed control at 8000 g/ha [3, 12]: 75%; percentage damage ([5]; preemergence, 8.0 kg/ha): 75 percentage damage; pest or weed control at 2000 g/ha [6, 7]: 30%; pest or weed control at 4000 g/ha ([6]; post-emergence, postemergence): 30%; pest or weed control at 8000 g/ha ([6]; post-emergence, postemergence): 30%; pest or weed control at 2000 g/ha [6, 10]: 50%; pest or weed control at 4000 g/ha ([6]; pre-emergence, preemergence): 58%; pest or weed control at 8000 g/ha ([6]; pre-emergence, preemergence): 65%
9 | C=CCN(CC=C)C(=O)CCl [drawing 428] |  |  |  |  |  |  |  |  |  | 10 | 10 | 20 | 0 | 15 | 25 | 0 | 10 | 20 | 25 | 60 | pest or weed control at 2000 g/ha ([3]; post-emergence): 5%; pest or weed control at 4000 g/ha ([3]; post-emergence): 5%; pest or weed control at 8000 g/ha ([3]; post-emergence): 5%; pest or weed control at 2000 g/ha ([3]; pre-emergence): 70%; pest or weed control at 4000 g/ha ([3]; pre-emergence): 80%; pest or weed control at 8000 g/ha ([3]; pre-emergence): 90%; percentage damage ([5]; preemergence, 8.0 kg/ha): 85 percentage damage; pest or weed control at 2000 g/ha [6, 7]: 35%; pest or weed control at 4000 g/ha ([6]; post-emergence, postemergence): 35%; pest or weed control at 8000 g/ha ([6]; post-emergence, postemergence): 40%; pest or weed control at 2000 g/ha [6, 10]: 95%; pest or weed control at 4000 g/ha ([6]; pre-emergence, preemergence): 98%; pest or weed control at 8000 g/ha ([6]; pre-emergence, preemergence): 100%
10 | c1ccc(N2N=NC3C4CC(C5N=NC45)C32)cc1 (centres unmarked) [drawing 431] |  |  |  |  |  |  |  |  |  | 85 | 100 | 100 | 95 | 95 | 95 | 60 | 90 | 90 | 95 | 95 | pest or weed control at 2000 g/ha [3, 7]: 10%; pest or weed control at 4000 g/ha [3, 8]: 15%; pest or weed control at 8000 g/ha [3, 9]: 20%; pest or weed control at 2000 g/ha [3, 10]: 80%; pest or weed control at 4000 g/ha [3, 11]: 100%; pest or weed control at 8000 g/ha [3, 12]: 100%; percentage damage ([5]; preemergence, 8.0 kg/ha): 95 percentage damage; pest or weed control at 2000 g/ha [6, 7]: 35%; pest or weed control at 4000 g/ha ([6]; post-emergence, postemergence): 40%; pest or weed control at 8000 g/ha ([6]; post-emergence, postemergence): 50%; pest or weed control at 4000 g/ha ([6]; pre-emergence, preemergence): 100%; pest or weed control at 8000 g/ha ([6]; pre-emergence, preemergence): 100%; percentage damage ([6]; preemergence, 2.0 kg/ha): 100 percentage damage
11 | c1csc(N2N=NC3C4CC(C5N=NC45)C32)n1 (centres unmarked) [drawing 432] |  |  |  |  |  |  |  |  |  | 90 | 95 | 100 | 95 | 95 | 95 | 55 | 60 | 95 | 95 | 95 | pest or weed control at 2000 g/ha [3, 7]: 10%; pest or weed control at 4000 g/ha [3, 8]: 18%; pest or weed control at 8000 g/ha [3, 9]: 30%; pest or weed control at 2000 g/ha [3, 10]: 72%; pest or weed control at 4000 g/ha [3, 11]: 98%; pest or weed control at 8000 g/ha [3, 12]: 90%; percentage damage ([5]; preemergence, 8.0 kg/ha): 95 percentage damage; pest or weed control at 2000 g/ha [6, 7]: 38%; pest or weed control at 4000 g/ha ([6]; post-emergence, postemergence): 52%; pest or weed control at 8000 g/ha ([6]; post-emergence, postemergence): 68%; pest or weed control at 2000 g/ha [6, 10]: 80%; pest or weed control at 4000 g/ha ([6]; pre-emergence, preemergence): 92%; pest or weed control at 8000 g/ha ([6]; pre-emergence, preemergence): 95%
